These are literature values, as cited in PMC5731893, “Therapeutic potential of an anti-angiogenic multimodal biomimetic peptide in hepatocellular carcinoma” (Oncotarget, 2017).

One series deals with HCC. An excerpt: Liver cancer is one of the top causes of cancer related mortality in the world and the incidence has been increasing in the US for decades. Surgical resection and/or liver transplantation are the curative options for early diagnosed hepatocellular cancers. However, the prognosis for advanced stages of the disease is dismal owing to a lack of chemotherapeutic options. A series of anti-angiogenic drugs have been undergoing clinical trials for some time but they have not had much success because of drug related toxicity and partly because many cases of HCC are refractory to different ... || Compared to normal liver cells, HCC tumor cells are often associated with the dysregulation of numerous cellular signaling pathways. Expression changes or mutations of growth factor signaling components, specifically c-Met and insulin-like growth factor 1 receptor (IGF1R) are well documented in the pathogenesis of HCC [10]. Overexpression of c-Met and IGF1R is observed in 20-48% or 33% of HCC tumors, respectively, as are increases in the expression of the IGF1R ligand IGF-II [11]. Downstream effectors of insulin receptor substrates 1 (IRS-1) and 2 (IRS-2) have likewise been r ...

The test system of a further series is HCC tumors. The source says:
Angiogenesis is a common feature of many solid tumors and plays a critical role in growth and metastatic progression of HCC. […] Aflibercept speci ... || The dual inhibition of cancer and endothelial cell functions may synergize through the reduction of resistance pathways normally associated with anti-angiogenic therapies. While angiogenesis is important for the exponential growth of cancerous tissue, non-angiogenic processes for tumor vascularization may help bypass the effects of strictly angiogenesis-based therapies. In particular, vessel co-option, or the hijacking of existing vasculature for tumor growth, is observed in models of HCC and has been associated with the diminishing efficacy of extended sorafenib treatment. Tumors from orthoto ...

In a further series the test system is HCC cells. An excerpt: Liver cancer is one of the top causes of cancer related mortality in the world and the incidence has been increasing in the US for decades. Surgical resection and/or liver transplantation are the curative options for early diagnosed hepatocellular cancers. However, the prognosis for advanced stages of the disease is dismal owing to a lack of chemotherapeutic options. A series of anti-angiogenic drugs have been undergoing clinical trials for some time but they have not had much success because of drug related toxicity and partly because many cases of HCC are refractory to different ...

As for `O=C1NC(=O)[C@@H](c2cn3c4c(cccc24)CCC3)[C@@H]1c1c[nH]c2ccccc12` [tivantinib], in the series on HCC (phase II, c-Met positive HCC), the “effect on overall survival” value is “significantly improve overall survival”.

As for “aflibercept: soluble decoy construct containing a fusion of VEGFR1 and VEGFR2 ligand binding domains”, in the series with HCC tumors (several mouse models of HCC), the “effect on tumor growth” value is listed as “inhibit tumor growth”.

Turning to `CNC(=O)c1cc(Oc2ccc(NC(=O)Nc3ccc(Cl)c(C(F)(F)F)c3)c(F)c2)ccn1` [regorafenib], in the series on HCC (advanced HCC that progress under sorafenib, phase III), the “increase of median survival” value is recorded as 3 months.

On to `CNC(=O)c1cc(Oc2ccc(NC(=O)Nc3ccc(Cl)c(C(F)(F)F)c3)cc2)ccn1` [Sorafenib], for which the “effect on sensitivity to apoptotic stimuli” value in the series with HCC cells was “sensitize the cells to apoptotic stimuli”. Moreover, the “effect on HCC proliferation” value in the series with HCC cells (within the S/G2/M phases of the cell cycle) was “slow HCC proliferation”. Further, in the series with HCC tumors (orthotopic mouse models of HCC), the “vessel co-option vs angiogenic mechanisms after administration” value is listed as “significant preference towards vessel co-option over angiogenic mechanisms”. In addition, in the series with HCC (human, in vivo), the side effects entry was “clinically significant”.
